Where a name gives a salt, the structure may show the parent alone. Read-outs that look alike come from different tables or passages of the source. Marks after values point to notes of the source that are not given here.
Tests used:
male mice = test: Study of the compound's toxicity: mice mortality, LD50 by Karber method; type: in vivo; details: for Animal mortality: Alive / Animal mortality: Dead: 5 mice per group, 5 days observation
Description: (§1) Study of the compound of formula 2 was conducted in vivo. […] To determine the doses of the compound that would need to be studied, it is first necessary to study its toxicity. Studies were carried out in male mice with body mass 18-20 g. Compound 2 was administered as a water suspension. Each dose was administered to 5 animals. Behavior and overall condition of animals were observed during 5 days. LD50 (the dose causing the death of 50% of animals) was calculated using Karber method.

[1] = as above; type: in vivo; details: male, mouse, in vivo; oral; stated as 'may exceed'; read-out: LD50 in oral administration
Description: as §1

mice stomach [2] = test: Aggravation of ulcerogenic effects by 0.6H hydrochloric acid; type: in vivo
Description: (§2) Studies were performed according to the following scheme: • 1. […] Study of the compounds' ulcerogenic action using pharmaceutical dose during 7 days of administration. • 3. Aggravation of ulcerogenic effects of studied compounds by 0.6H hydrochloric acid. • 4. Aggravation of ulcerogenic effects of studied compounds by the known NSAIDs (indomethacin). 1.
(§3) Ulcerogenic effect was assessed using 4-point scale: 0—no damage; 0.5—hyperemia; 1—insignificant damage (1 or 2 small bleedings); 2—multiple damage (erosions, small bleedings); 3—significant and multiple damage (erosions, bleedings); 4—severe damage, affecting all gastric mucosa (massive bleedings, erosions, perforations).
(§4) Male mice with body mass 23-24 g were deprived of food for 24 hours, water access was not limited.
(§5) Drugs of comparison: indomethacin 20 mg/kg, voltaren—50 mg/kg and aminoguanidine—200 mg/kg. Each test group had 10 animals.

[3] = Assessment of other types of pharmaceutical activity
From the text: All discovered types of pharmacological activity of compound 2 are present not only in its hydrochloride form, but also in its other pharmaceutically acceptable salts (e.g. Na, K, Ca, Mg), and also in complex combinations with pharmaceutically acceptable complexones (e.g. with glycyrrhizic acid).

[4] = test system: LPS-induced peritonitis in mice; test: LPS-induced peritonitis in mice, volume of exudate; type: in vivo
Description: Activity was studies using the methods listed in “Methodical recommendations on experimental (preclinical) research of new nonsteroidal anti-inflammatory drugs” for new compounds screening, in animal models of peritonitis induced by lipopolysaccharide (LPS) and carrageenan.
(§6) Anti-exudative action was studied in male mice with body mice 22.0-23.0 g. Peritonitis was induced by intraperitoneal administration of lipopolysaccharide (LPS), produced from Escherichia coli (Sigma) 1.0 mg/kg, as described in [6]: after 4 hours the animals were sacrificed by CO2, their peritoneal cavity opened and the volume of exudate was measured in ml. Studied compounds and drugs of comparison were administered per os one hour before LPS, control group was composed of mice receiving 0.3 ml of saline before LPS administration. Each group had 10 animals.
(§7) The results were processed using variation statistics methods for biological research (mean standard error, means were calculated using Student's t-distribution).

mice stomach [5] = test: Irritant action on mice stomach, single administration of 500 mg/kg; type: in vivo
Description: Ulcerogenic effect of compound 2 was studied in accordance with Methodical recommendations on experimental (preclinical) research of new nonsteroidal anti-inflammatory drugs. Studies were performed according to the following scheme: • 1. Study of the compounds' irritant action on mice stomach using doses five-times higher than pharmacological dose (single administration). • 2. Study of the compounds' ulcerogenic action using pharmaceutical dose during 7 days of administration. • 3. Aggravation of ulcerogenic effects of studied compounds by 0.6H hydrochloric acid. • 4. Aggravation of ulcerogenic effects of studied compounds by the known NSAIDs (indomethacin). 1. Study of Irritant Action of Compound 2
Male mice with body mass 23-24 g were deprived of food for 24 hours, water access was not limited. Number of animals in a group-10.
Compound 2 in 500 mg/kg dose was administered by a tube into the stomach, after 6 hours the animals were sacrificed, their stomachs extracted, number of ulcers counted and ulcerogenic index calculated. Ulcerogenic effect was assessed using 4-point scale: 0—no damage; 0.5—hyperemia; 1—insignificant damage (1 or 2 small bleedings); 2—multiple damage (erosions, small bleedings); 3—significant and multiple damage (erosions, bleedings); 4—severe damage, affecting all gastric mucosa (massive bleedings, erosions, perforations).

mice stomach [6] = test: Aggravation of ulcerogenic effect by indomethacin; type: in vivo
Description: as §2, §3, §4
Drugs of comparison: voltaren—50 mg/kg and aminoguanidine—200 mg/kg. Each test group had 10 animals.

[7] = test system: carrageenan-induced peritonitis in mice; test: Carrageenan-induced peritonitis in mice, volume of exudate; type: in vivo
Description: Research was carried out by a method described in [5]. Experiments were performed using male mice with body mass 23-24 g, in groups of 10 animals. […] The results were processed using variation statistics methods for biological research (mean standard error, means were calculated using Student's t-distribution).

mice stomach [8] = type: in vivo
Description: as §2, §3
After 7 days the animals were sacrificed by CO2, their stomachs extracted and the number of ulcers counted.
as §5

[9] = test system: LPS-induced peritonitis in rats; test: LPS-induced peritonitis in rats, volume of exudate; type: in vivo; details: for Anti-inflammatory activity in LPS-induced peritonitis model, % of control: rats
Description: as §6, with “male rate” for “male mice”, “body mass 170.0-180.0” for “body mice 22.0-23.0”, “coli (Sigma)—1.0 mg/kg” for “coli (Sigma) 1.0 mg/kg,”, “of rats” for “of mice”, “had 7” for “had 10”
as §7

[10] = test system: adjuvant arthritis in Wistar rats; test: Chronic arthritis (adjuvant arthritis) model in Wistar rats; type: in vivo
Description: Compound of formula 2 was tested in chronic arthritis (adjuvant arthritis) model in Wistar rats.
In the same dose the compound has shown a potent (better than indomethacin) chondroprotective action towards interphalangeal joints of affected leg (x-ray (röntgenography) data). In intragastric administration (analog of per os) the compound has shown systemic anti-inflammatory action (reduction of swelling, leukocytosis, TNFα level, chondroprotective action) that may be associated with the inhibition of delayed type hypersensitivity.

[11] = 50 mg/kg dose, compared with indomethacin

## N=C(N)N/N=C\c1[nH]c2ccccc2c1Nc1ccc([N+](=O)[O-])cc1 [Compound 2, N-[3-(4-nitrophenylamino)-indole-2-ilmethylene]aminoguanidine hydrochloride]
Male mice; 500.0 mg/kg intravenous
  Note (behavior): Normal behavior
  Animal mortality: Alive: 5
  Animal mortality: Dead: 0
Male mice; 1000.0 mg/kg intravenous
  Note (behavior): Normal behavior
  Animal mortality: Alive: 5
  Animal mortality: Dead: 0
Male mice; 1500.0 mg/kg intravenous
  Note (behavior): Normal behavior
  Animal mortality: Alive: 5
  Animal mortality: Dead: 0
Male mice; 2000.0 mg/kg intravenous
  Note (behavior): Animals depressed
  Animal mortality: Alive: 4
  Animal mortality: Dead: 1
Male mice; after intravenous administration up to 2000.0 mg/kg
  Class of danger as specified by GOST 12.1.007-76: third class of danger
[1]
  LD50 at 5 days: > 5000 mg/kg
Mice stomach [2]
  Aggravation of ulceration when combined with 0.6H hydrochloric acid: does not aggravate ulceration
Mice stomach [2]; compound 2 100 mg/kg, indomethacin 20 mg/kg, voltaren 50 mg/kg, aminoguanidine 200 mg/kg, 1 hour before 0.6H HCl 5 ml/kg, after 4 hours
  Average ulcerogenic index (4-point scale) of combining the studied compounds with hydrochloric acid: 0.15
[3]
  Other types of pharmaceutical activity: possesses anti-allergic, antihypoxic and analgesic activity
[4]; 25.0 mg/kg per os
  Anti-inflammatory activity in LPS-induced peritonitis model, % of control: 2.2 % of control
[4]; 50.0 mg/kg per os
  Anti-inflammatory activity in LPS-induced peritonitis model, % of control: 46.7* % of control
[4]; 100.0 mg/kg per os
  Anti-inflammatory activity in LPS-induced peritonitis model, % of control: 88.9* % of control
[4]; 200.0 mg/kg per os
  Anti-inflammatory activity in LPS-induced peritonitis model, % of control: 100.0* % of control
Mice stomach [5]; mice fasted 24 h, into the stomach, sacrificed after 6 hours
  Average ulcerogenic index (4-point scale) of single administration of the compounds in 500.0 mg/kg dose: 0
Mice stomach [5]; single administration of 500 mg/kg dose
  Irritant effect on gastric mucosa: does not have irritant effect on gastric mucosa
Mice stomach [6]; indomethacin in 20 mg/kg dose
  Aggravation of ulceration when combined with indomethacin: does not aggravate ulceration
Mice stomach [6]; mice, compound 2 100 mg/kg, voltaren 50 mg/kg, aminoguanidine 200 mg/kg, 1 hour before indomethacin 20 mg/kg, after 5 hours
  Average ulcerogenic index (4-point scale) of combining the studied compounds with indomethacin: 2.2
[7]; 25.0 mg/kg per os
  Anti-inflammatory activity in carrageenan-induced peritonitis model, % of control: 3.9 % of control
[7]; 50.0 mg/kg per os
  Anti-inflammatory activity in carrageenan-induced peritonitis model, % of control: 21.6* % of control
[7]; 100.0 mg/kg per os
  Anti-inflammatory activity in carrageenan-induced peritonitis model, % of control: 45.1* % of control
[7]; 200.0 mg/kg per os
  Anti-inflammatory activity in carrageenan-induced peritonitis model, % of control: 84.3* % of control
Mice stomach [8]; chronic use of 200 mg/kg doses
  Irritant effect on gastric mucosa: does not have irritant effect on gastric mucosa
Mice stomach [8]; mice, per os 7 days, compound 2 200 mg/kg, indomethacin 20 mg/kg, voltaren 50 mg/kg, aminoguanidine 200 mg/kg
  Average ulcerogenic index (4-point scale) of chronic administration of pharmacological dose: 0
[9]; Rattus norvegicus, po
  ED50: 48 ± 4.5 mg/kg
[9]; 10.0 mg/kg per os
  Anti-inflammatory activity in LPS-induced peritonitis model, % of control: 2.0 % of control
[9]; 25.0 mg/kg per os
  Anti-inflammatory activity in LPS-induced peritonitis model, % of control: 26.0* % of control
[9]; 50.0 mg/kg per os
  Anti-inflammatory activity in LPS-induced peritonitis model, % of control: 58.0* % of control
[9]; 75.0 mg/kg per os
  Anti-inflammatory activity in LPS-induced peritonitis model, % of control: 78.0* % of control
[9]; 100.0 mg/kg per os
  Anti-inflammatory activity in LPS-induced peritonitis model, % of control: 100.0* % of control
[9]; summary of tables 2 and 3 (mice and rat peritonitis models)
  Anti-inflammatory activity compared with voltaren and aminoguanidine: somewhat inferior to voltaren in used models, but is better than aminoguanidine
[10]; 50 mg/kg dose
  Chondroprotective effect (cartilage width): chondroprotective effect of compound 2 was noted
  Degeneration of articular carriage of hock: partially prevented the degeneration of articular carriage of hock
[10]; [11]
  Development of joint sclerosis and degradation of hind leg interphalangeal joints (x-ray): most effective in inhibiting the development of joint sclerosis and degradation of hind leg interphalangeal joints, better than the drug of comparison
  Level of TNFα in blood plasma: reduced the level of TNFα as good as the drug of comparison
[10]; 50 and 75 mg/kg doses
  Severity of hind leg swelling: reduced the severity of hind leg swelling
[10]; adjuvant arthritis, Wistar rats
  Development of delayed type hypersensitivity: inhibiting the development of delayed type hypersensitivity
[10]; adjuvant arthritis, Wistar rats, intragastric
  Leukocytosis: reducing leukocytosis

Reference: patent US8642784B2, “Biologically active compound N-[3-(4-nitrophenylamino)-indole-2-ilmethylene]aminoguanidine hydrochloride with anti-inflammatory activity” (priority 2010, dated 2014)
